Laboratory results from the NIST ThermoML archive (doi:10.1016/j.fluid.2013.03.002).
± gives the expanded uncertainty stated by the source.

Experiments:
[1] = refractive index (Na D-line) (dimensionless); settings: 101.33 kPa, Liquid, Standard Abbe refractometry
[2] = 101.33 kPa, Liquid, Vibrating tube method

| SMILES | refractive index ([1]; 293.15 K) | refractive index ([1]; 298.15 K) | mass density ([2]; 293.15 K) [kg/m3] | mass density ([2]; 298.15 K) [kg/m3] |
| --- | --- | --- | --- | --- |
| CCCOCC(C)OCC(C)O (stereo not drawn) [1-(1-methyl-2-propoxyethoxy)-2-propanol] | 1.4225 ± 0.0005 | 1.4214 ± 0.0005 | 920.14 ± 1 | 915.65 ± 1 |
| CCCCCCCCCCCCCCCC [hexadecane] | 1.4342 ± 0.0006 | 1.4326 ± 0.0006 | 773.5 ± 1 | 769.93 ± 1 |
